Structures can show the parent of a compound that is named as a salt.
Tested on: KMS.12.BM cells
Test: KMS.12.BM Cell Viability Assay (Example B1)
Assay type: cell-based, human
Settings: 3 days, Cell Titer-GLO, read-out: KMS cellular IC50
Protocol: KMS.12.BM cell line (human myeloma) was purchased from JCRB (Osaka, Japan) and maintained in RPMI with 10% FBS culture medium. To measure the cytotoxic activity of the compounds through ATP quantitation, the KMS.12.BM cells are plated in the RPMI culture medium at 5000 cells/well/per 100 μL into a 96-well polystyrene clear black tissue culture plate (Greiner-bio-one through VWR, NJ), in the presence or absence of a concentration range of test compounds. After 3 days, […] Cell Titer-GLO Luminescent (Promega, Madison, Wis.) cell culture agent is added to each well for 10 min. at room temperature to stabilize the luminescent signal. This determines the number of viable cells in culture based on quantitation of the ATP present, which signals the presence of metabolically active cells.

Row | Compound | IC50
1 | Cc1noc(C)c1-c1ccc2nc(N3CCC(C)(O)C3)n3c2c1OC[C@@H]3c1ccccn1 (single isomer, unassigned) [Example 146B] | < 1 µM
2 | Cc1noc(C)c1-c1ccc2[nH]c(=O)n3c2c1OCC3C1CCCO1 (single isomer, unassigned) [Example 18B, 7-(3,5-Dimethylisoxazol-4-yl)-4-(tetrahydrofuran-2-yl)-4,5-dihydroimidazo[1,5,4-de][1,4]benzoxazin-2(1H)-one] | < 1 µM

Same assay, conditions: Homo sapiens, 72 h, 3 days, Cell Titer-GLO, read-out: KMS cellular IC50

Row | Compound | IC50
3 | Cc1noc(C)c1-c1ccc2nc(N3CCCCC3)n3c2c1OCC3c1ccccc1 (stereo not drawn) [Example 56, 7-(3,5-Dimethylisoxazol-4-yl)-4-phenyl-2-piperidin-1-yl-4,5-dihydroimidazo[1,5,4-de][1,4]benzoxazine] | < 1 µM
4 | Cc1noc(C)c1-c1ccc2nc(N3CCN(CC(N)=O)CC3)n3c2c1OC[C@@H]3c1ccccn1 [Example 191, 2-{4-[(4S)-7-(3,5-dimethylisoxazol-4-yl)-4-pyridin-2-yl-4,5-dihydroimidazo[1,5,4-de][1,4]benzoxazin-2-yl]piperazin-1-yl}acetamide] | < 1 µM
5 | Cc1noc(C)c1-c1ccc2nc(N3CC[C@@H](NC(=O)N4CCOCC4)C3)n3c2c1OC[C@@H]3c1ccccn1 [Example 153, N-{(3R)-1-[(4S)-7-(3,5-Dimethylisoxazol-4-yl)-4-pyridin-2-yl-4,5-dihydroimidazo[1,5,4-de][1,4]benzoxazin-2-yl]pyrrolidin-3-yl}morpholine-4-carboxamide] | < 1 µM
6 | Cc1noc(C)c1-c1ccc2nc(N3CC[C@@H](NS(=O)(=O)C(C)C)C3)n3c2c1OC[C@@H]3c1ccccn1 [Example 217, N-{(3R)-1-[(4S)-7-(3,5-dimethylisoxazol-4-yl)-4-pyridin-2-yl-4,5-dihydroimidazo[1,5,4-de][1,4]benzoxazin-2-yl]pyrrolidin-3-yl}propane-2-sulfonamide] | < 1 µM
7 | Cc1noc(C)c1-c1ccc2nc(N3CC(O)C3)n3c2c1OCC3c1ccccc1 (stereo not drawn) [Example 59] | < 1 µM
8 | Cc1noc(C)c1-c1cc(CNC(=O)CN(C)C)c2[nH]c(=O)n3c2c1OC[C@@H]3c1ccccn1 [Example 143, 2-(Dimethylamino)-N-{[(4S)-7-(3,5-dimethylisoxazol-4-yl)-2-oxo-4-pyridin-2-yl-1,2,4,5-tetrahydroimidazo[1,5,4-de][1,4]benzoxazin-9-yl]methyl}acetamide] | < 1 µM
9 | Cc1noc(C)c1-c1ccc2nc(N3CC(NS(C)(=O)=O)C3)n3c2c1OC[C@@H]3c1ccccn1 [Example 237, N-{1-[(4S)-7-(3,5-dimethylisoxazol-4-yl)-4-pyridin-2-yl-4,5-dihydroimidazo[1,5,4-de][1,4]benzoxazin-2-yl]azetidin-3-yl}methanesulfonamide] | < 1 µM
10 | COCCN1CCN(c2nc3ccc(-c4c(C)noc4C)c4c3n2[C@@H](c2ccccn2)CO4)CC1 [Example 184, (4S)-7-(3,5-dimethylisoxazol-4-yl)-2-[4-(2-methoxyethyl)piperazin-1-yl]-4-pyridin-2-yl-4,5-dihydroimidazo[1,5,4-de][1,4]benzoxazine] | < 1 µM
11 | Cc1noc(C)c1-c1ccc2nc(N3CCN(S(C)(=O)=O)CC3)n3c2c1OC[C@@H]3c1ccccn1 [Example 173, (4S)-7-(3,5-dimethylisoxazol-4-yl)-2-[4-(methylsulfonyl)piperazin-1-yl]-4-pyridin-2-yl-4,5-dihydroimidazo[1,5,4-de][1,4]benzoxazine] | < 1 µM
12 | Cc1noc(C)c1-c1ccc2nc(N3CCN(Cc4ccccc4)CC3)n3c2c1OC[C@@H]3c1ccccn1 [Example 179, (4S)-2-(4-benzylpiperazin-1-yl)-7-(3,5-dimethylisoxazol-4-yl)-4-pyridin-2-yl-4,5-dihydroimidazo[1,5,4-de][1,4]benzoxazine] | < 1 µM
13 | Cc1noc(C)c1-c1ccc2nc(N3CCN4CCC[C@@H]4C3)n3c2c1OC[C@@H]3c1ccccn1 [Example 193B, (4S)-7-(3,5-dimethylisoxazol-4-yl)-2-[(8aR)-hexahydropyrrolo[1,2-a]pyrazin-2(1H)-yl]-4-pyridin-2-yl-4,5-dihydroimidazo[1,5,4-de][1,4]benzoxazine] | < 1 µM
14 | Cc1noc(C)c1-c1ccc2nc(N3CCC3)n3c2c1OC[C@@H]3c1ccccn1 [Example 164, (4S)-2-azetidin-1-yl-7-(3,5-dimethylisoxazol-4-yl)-4-pyridin-2-yl-4,5-dihydroimidazo[1,5,4-de][1,4]benzoxazine] | < 1 µM
15 | Cc1noc(C)c1-c1ccc2nc(N3CC[C@@H](C(=O)NC(C)C)C3)n3c2c1OC[C@@H]3c1ccccn1 [Example 145, (3R)-1-[(4S)-7-(3,5-Dimethylisoxazol-4-yl)-4-pyridin-2-yl-4,5-dihydroimidazo[1,5,4-de][1,4]benzoxazin-2-yl]-N-isopropylpyrrolidine-3-carboxamide] | < 1 µM
16 | Cc1noc(C)c1-c1ccc2nc(N3CCC(CO)CC3)n3c2c1OC[C@@H]3c1ccccn1 [Example 176, {1-[(4S)-7-(3,5-dimethylisoxazol-4-yl)-4-pyridin-2-yl-4,5-dihydroimidazo[1,5,4-de][1,4]benzoxazin-2-yl]piperidin-4-yl}methanol] | < 1 µM
17 | COc1cccc(C2COc3c(-c4c(C)noc4C)ccc4[nH]c(=O)n2c34)c1 (stereo not drawn) [Example 6, 7-(3,5-Dimethylisoxazol-4-yl)-4-(3-methoxyphenyl)-4,5-dihydroimidazo[1,5,4-de][1,4]benzoxazin-2(1H)-one] | < 1 µM
18 | Cc1noc(C)c1-c1ccc2[nH]c(=O)n3c2c1CCC3c1ccccn1 (stereo not drawn) [Example 123, 7-(3,5-Dimethylisoxazol-4-yl)-4-pyridin-2-yl-5,6-dihydro-4H-imidazo[4,5,1-ij]quinolin-2(1H)-one trifluoroacetate] | < 1 µM
19 | Cc1noc(C)c1-c1ccc2[nH]c(=O)n3c2c1OCC3c1ccc(F)cn1 (stereo not drawn) [Example 19, 7-(3,5-Dimethylisoxazol-4-yl)-4-(5-fluoropyridin-2-yl)-4,5-dihydroimidazo[1,5,4-de][1,4]benzoxazin-2(1H)-one] | < 1 µM
20 | Cc1noc(C)c1-c1ccc2nc(C(=O)N(C)C)n3c2c1OC[C@@H]3c1ccccn1 [Example 91, (4S)-7-(3,5-Dimethylisoxazol-4-yl)-N,N-dimethyl-4-pyridin-2-yl-4,5-dihydroimidazo[1,5,4-de][1,4]benzoxazine-2-carboxamide] | < 1 µM
21 | Cc1noc(C)c1-c1ccc2nc(N3CC(NC(=O)C(C)C)C3)n3c2c1OC[C@@H]3c1ccccn1 [Example 233, N-{1-[(4S)-7-(3,5-dimethylisoxazol-4-yl)-4-pyridin-2-yl-4,5-dihydroimidazo[1,5,4-de][1,4]benzoxazin-2-yl]azetidin-3-yl}-2-methylpropanamide] | < 1 µM
22 | Cc1noc(C)c1-c1ccc2nc(N3CCNCC3)n3c2c1OC[C@@H]3c1ccccn1 [Example 150, (4S)-7-(3,5-Dimethylisoxazol-4-yl)-2-piperazin-1-yl-4-pyridin-2-yl-4,5-dihydroimidazo[1,5,4-de][1,4]benzoxazine trihydrochloride] | < 1 µM
23 | Cc1noc(C)c1-c1ccc2nc(N3CCC[C@H](O)C3)n3c2c1OC[C@@H]3c1ccccn1 [Example 170B, (3S)-1-[(4S)-7-(3,5-dimethylisoxazol-4-yl)-4-pyridin-2-yl-4,5-dihydroimidazo[1,5,4-de][1,4]benzoxazin-2-yl]piperidin-3-ol] | < 1 µM
24 | Cc1noc(C)c1-c1ccc2nc(N3CC[C@@H](NC(=O)CC#N)C3)n3c2c1OC[C@@H]3c1ccccn1 [Example 211, 2-cyano-N-{(3R)-1-[(4S)-7-(3,5-dimethylisoxazol-4-yl)-4-pyridin-2-yl-4,5-dihydroimidazo[1,5,4-de][1,4]benzoxazin-2-yl]pyrrolidin-3-yl}acetamide] | < 1 µM
25 | CNC(=O)[C@@H]1CCN(c2nc3ccc(-c4c(C)noc4C)c4c3n2[C@@H](c2ccccn2)CO4)C1 [Example 249, (3R)-1-[(4S)-7-(3,5-dimethylisoxazol-4-yl)-4-pyridin-2-yl-4,5-dihydroimidazo[1,5,4-de][1,4]benzoxazin-2-yl]-N-methylpyrrolidine-3-carboxamide] | < 1 µM
26 | Cc1noc(C)c1-c1ccc2nc(N3CCNC(=O)C3)n3c2c1OC[C@@H]3c1ccccn1 [Example 172, 4-[(4S)-7-(3,5-dimethylisoxazol-4-yl)-4-pyridin-2-yl-4,5-dihydroimidazo[1,5,4-de][1,4]benzoxazin-2-yl]piperazin-2-one] | < 1 µM
27 | CC(=O)N[C@H]1CCN(c2nc3ccc(-c4c(C)noc4C)c4c3n2[C@@H](c2ccccn2)CO4)C1 [Example 201B, N-{(3S)-1-[(4S)-7-(3,5-dimethylisoxazol-4-yl)-4-pyridin-2-yl-4,5-dihydroimidazo[1,5,4-de][1,4]benzoxazin-2-yl]pyrrolidin-3-yl}acetamide] | < 1 µM
28 | Cc1noc(C)c1-c1ccc2nc(N3CCC(O)CC3)n3c2c1OC[C@@H]3c1ccccn1 [Example 169, 1-[(4S)-7-(3,5-dimethylisoxazol-4-yl)-4-pyridin-2-yl-4,5-dihydroimidazo[1,5,4-de][1,4]benzoxazin-2-yl]piperidin-4-ol] | < 1 µM

Same assay, conditions: Homo sapiens, KMS-12-BM, 72 h, 3 days, Cell Titer-GLO, read-out: KMS cellular IC50

Row | Compound | IC50
29 | CCOC(=O)C1Oc2c(-c3c(C)noc3C)ccc3[nH]c(=O)n(c23)C1c1ccccn1 (stereo not drawn) [Example 20, Ethyl 7-(3,5-dimethylisoxazol-4-yl)-2-oxo-4-pyridin-2-yl-1,2,4,5-tetrahydroimidazo[1,5,4-de][1,4]benzoxazine-5-carboxylate] | < 1 µM
30 | Cc1noc(C)c1-c1cc(Cl)c2[nH]c(=O)n3c2c1OCC3c1ccccn1 (single isomer, unassigned) [Example 266A, 9-chloro-7-(3,5-dimethylisoxazol-4-yl)-4-pyridin-2-yl-4,5-dihydroimidazo[1,5,4-de][1,4]benzoxazin-2(1H)-one] | < 1 µM

Reference: US10464947B2 (Incyte Corporation, priority 2013, dated 2019)
